Results reported in patent US20040024000A1, “Dihydropyrimidine derivatives as cysteine protease inhibitors” (priority 2003, published 2004).

Experiments:
[1] = target: r rat cathepsin B (Rattus norvegicus, UniProt P00787); experiment: In vitro assay for cathepsin B inhibition; assay type: biochemical; settings: substrate N-CBZ-Phe-Arg-AMC, pH 5.1, 10 min preincubation
Procedure: The compounds of formula I were tested for inhibition of cathepsin B using the known method (A. J. Barret et al., Biochem. J. 1982, 201, 189-198). To a 170 μl of enzyme-buffer mixture (enzyme: r rat cathepsin B, diluted to give approximate 10 F units/min, buffer: 56 mM sodium acetate, 1.124 mM EDTA, 10 mM DTT, pH 5.1) a 10 μl of inhibitor (dissolved in DMSO) was added. After 10 min of incubation at room temperature, a 20 μl of 5 mM substrate (N-CBZ-Phe-Arg-AMC, dissolved in DMSO) was added to initiate reaction. Reading is followed up for 10 min at the fluoroscan reader (excitation at 380 nm emission at 460 nm).
(§1) A plot of percentage of inhibition vs inhibitor concentration is obtained, and IC50 is determined using a linear regression calculations (concentration of inhibitor which will give 50% inhibition).

[2] = target: r rat cathepsin L (Rattus norvegicus, UniProt P07154); experiment: In vitro assay for cathepsin L inhibition; assay type: biochemical; settings: substrate N-CBZ-Phe-Arg-AMC, pH 5.0, 10 min preincubation
Procedure: After 10 min of incubation at room temperature, a 20 μl of 1 mM substrate (N-CBZ-Phe-Arg-AMC, dissolved in DMSO) was added to initiate reaction. Reading is followed up for 10 min at the fluoroscan reader (excitation at 380 nm emission at 460 nm).
as §1

[3] = target: T1, r cathepsin K (Homo sapiens, UniProt P43235); experiment: In vitro assay for cathepsin K inhibition; assay type: biochemical; settings: substrate N-CBZ-Phe-Arg-AMC, pH 5.5, 10 min preincubation
T1 sequence (P43235 115-329): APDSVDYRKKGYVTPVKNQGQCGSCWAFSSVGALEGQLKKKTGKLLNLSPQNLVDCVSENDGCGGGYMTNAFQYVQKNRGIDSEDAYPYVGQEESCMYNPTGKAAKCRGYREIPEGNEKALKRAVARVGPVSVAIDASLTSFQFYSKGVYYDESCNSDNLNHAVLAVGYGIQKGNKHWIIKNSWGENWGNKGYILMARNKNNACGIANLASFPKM
Procedure: To a […] of enzyme-buffer mixture (enzyme: r cathepsin K, diluted to give approximate 30 F units/min, buffer: 100 mM sodium acetate, 5 mM EDTA, 20 mM L-cysteine, 0.01% Brij, pH 5.5) a 10 μl of inhibitor (dissolved in DMSO) was added. After 10 min of incubation at room temperature, a 20 μl of 2.7 mM substrate (N-CBZ-Phe-Arg-AMC, dissolved in DMSO) was added to initiate reaction. Reading is followed up for 10 min at the fluoroscan II plate reader (excitation at 380 nm emission at 460 nm).
as §1

[4] = target: r cathepsin S (Homo sapiens, UniProt P25774); experiment: In vitro assay for cathepsin S inhibition; assay type: biochemical; settings: substrate N-CBZ-Val-Val-Arg-AMC, pH 6.5, 10 min preincubation
Procedure: To a […] of enzyme-buffer mixture (enzyme: r cathepsin S, diluted to give approximate 30 F units/min, buffer: 100 mM sodium phosphate, 1 mM EDTA, 5 mM DTT, 0.01% Brij, pH 6.5) a 10 μl of inhibitor (dissolved in DMSO) was added. After 10 min of incubation at room temperature a […] of 1.2 mM substrate (N-CBZ-Val-Val-Arg-AMC, dissolved in DMSO) was added to initiate reaction. Reading is followed up for 10 min at the fluoroscan 11 plate reader (excitation at 380 nm emission at 460 nm).
as §1

[5] = Pharmacokinetics in mice after single oral dose; assay type: in vivo; parameters: Cl/F: unit not given here; settings: single oral dose of 5 mg/kg; for AUC / Cmax / half-life / Vd/F: mouse, in vivo; for Vd/F: read-out: Vz/F
Procedure: Selected compounds of present invention were tested in rodents. This class of compound has favorable pharmacokinetics at the oral dose of 5 mg/kg. The bioavailability is about 60-70%.

Sequence of r rat cathepsin L (P07154 114-334): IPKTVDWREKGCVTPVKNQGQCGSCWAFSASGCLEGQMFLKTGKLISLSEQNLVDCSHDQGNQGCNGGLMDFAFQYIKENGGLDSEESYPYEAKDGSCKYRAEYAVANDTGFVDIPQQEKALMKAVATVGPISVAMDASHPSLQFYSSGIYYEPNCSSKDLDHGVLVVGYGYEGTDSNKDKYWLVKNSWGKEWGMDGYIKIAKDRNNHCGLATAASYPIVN
Sequence of r rat cathepsin B (P00787 80-333): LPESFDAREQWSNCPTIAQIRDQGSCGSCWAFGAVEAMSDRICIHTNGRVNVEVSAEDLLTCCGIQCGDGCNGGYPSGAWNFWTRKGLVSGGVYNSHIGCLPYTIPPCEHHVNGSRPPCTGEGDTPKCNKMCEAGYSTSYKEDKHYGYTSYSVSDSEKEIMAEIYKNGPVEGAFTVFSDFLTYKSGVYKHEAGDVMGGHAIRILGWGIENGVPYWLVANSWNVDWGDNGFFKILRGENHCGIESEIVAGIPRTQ
Sequence of r cathepsin S (P25774 115-331): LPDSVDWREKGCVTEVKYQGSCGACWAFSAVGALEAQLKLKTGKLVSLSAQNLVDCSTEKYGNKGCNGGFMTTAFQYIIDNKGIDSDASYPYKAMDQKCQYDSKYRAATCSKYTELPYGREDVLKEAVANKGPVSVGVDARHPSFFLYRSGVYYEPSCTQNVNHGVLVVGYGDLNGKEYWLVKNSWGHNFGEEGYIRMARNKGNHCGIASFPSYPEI

Row | IC50 [1] | IC50 [2] | IC50 [3] | IC50 [4] | AUC [5] | Cmax [5] | half-life [5] | Vd/F [5] | Cl/F [5] | SMILES
1 | 2.35 µM | 1500 nM | 45 nM | 94 nM |  |  |  |  |  | CC(C)C[C@H](NC(=O)OCc1ccccc1)C(=O)NC1=CNC(c2ccco2)NC1=O (stereo partly drawn) [Example 20, 5-[2-(Benzyloxycarbonyl)amino-2-isobutyl]acetamido-2-(furan-2-yl)-2,3-dihydopyrimidine-6-(1H)one]
2 | 3.16 µM | 1790 nM | 100 nM | 480 nM | 2730 ng·h/mL | 3830 ± 3090 ng/mL | 97.8 ± 28.8 min | 4.49 ± 1.9 L/kg | 0.617 ± 0.08 | CC(C)C[C@H](NC(=O)OCc1ccccc1)C(=O)NC1=CNC2(CCCC2)NC1=O [Example 6, 5-[2-(Benzyloxycarbonyl)amino-2-isobutyl]acetamido-2,2-spirocyclopentyl-2,3-dihydopyrimidine-6-(1H)one]
3 | 4.56 µM | 480 nM | 74 nM | 480 nM |  |  |  |  |  | CC(C)C[C@H](NC(=O)OCc1ccccc1)C(=O)NC1=CNC(C(C)(C)C)NC1=O (stereo partly drawn) [Example 8, 5-[2-(Benzyloxycarbonyl)-amino-2-isobutyl]acetamido-2-tert-butyl-2,3-dihydopyrimidine-6-(1H)one]
4 | 5.22 µM | 450 nM | 91 nM | 68 nM |  |  |  |  |  | CC(C)C[C@H](NC(=O)CCc1ccccc1)C(=O)NC1=CNC2(CCCCCC2)NC1=O [Example 19, 5-[2-(3-Phenylpropionoyl)-amino-2-isobutyl]acetamido-2,2-spirocycloheptyl-2,3-dihydopyrimidine-6-(1H)one]
5 | > 50 µM | > 50000 nM | 12100 nM | 8490 nM |  |  |  |  |  | CC(C)C[C@H](NC(=O)CCc1ccccc1)C(=O)NC1=CNC2(CCCC2)NC1=O [Example 17, 5-[2-(3-Phenylpropionyl)-amino-2-isobutyl]acetamido-2,2-spirocyclopentyl-2,3-dihydopyrimidine-6-(1H)one]
6 | 0.42 µM | 170 nM | 14 nM | 37 nM | 853 ng·h/mL | 2610 ± 1840 ng/mL | 32.4 ± 23.4 min | 4.49 ± 3.03 L/kg | 2.09 ± 0.72 | CC(C)C[C@H](NC(=O)c1cc2ccccc2s1)C(=O)NC1=CNC(c2ccccc2F)NC1=O (stereo partly drawn) [Example 21, 5-[2-(Benzothiophene-2-yl)amino-2-isobutyl]acetamido-2-(2-fluorophenyl)-2,3-dihydopyrimidine-6-(1H)one]
7 | > 50 µM | > 50000 nM | > 50000 nM | > 50000 nM |  |  |  |  |  | CC(C)C[C@H](NC(=O)OCc1ccccc1)C(=O)Nc1c[nH]c(=O)[nH]c1=O [Example 14, 5-[2-(Benzyloxycarbonyl)-amino-2-isobutyl]acetamido Pyrimidin-2,6-dione]
8 | 9.53 µM | 2320 nM | 250 nM | 2320 nM |  |  |  |  |  | CC(C)C[C@H](NC(=O)OCc1ccccc1)C(=O)NC1=CNC(CC(C)(C)C)NC1=O (stereo partly drawn) [Example 10, 5-[2-(Benzyloxycarbonyl)-amino-2-isobutyl]acetamido-2-tert-butylmethyl-2,3-dihydopyrimidine-6-(1H)one]
9 | 8.38 µM | 920 nM | 57 nM | 290 nM |  |  |  |  |  | CC(C)C[C@H](NC(=O)OCc1ccccc1)C(=O)NC1=CNC(c2ccccc2F)NC1=O (stereo partly drawn) [Example 2, 5-[2-(Benzyloxycarbonyl)amino-2-isobutyl]acetamido-2-(2-fluorophenyl)-2,3-dihydopyrimidine-6-(1H)one]
10 | 4.01 µM | 460 nM | 340 nM | 460 nM |  |  |  |  |  | CC(C)C[C@H](NC(=O)OCc1ccccc1)C(=O)NC1=CNC(c2ccccc2)NC1=O (stereo partly drawn) [Example 1, 5-[2-(Benzyloxycarbonyl)amino-2-isobutyl]acetamido-2-phenyl-2,3-dihydopyrimidine-6-(1H)one]
11 | 2.29 µM | 460 nM | 18 nM | 55 nM |  |  |  |  |  | CC(C)C[C@H](NC(=O)OCc1ccccc1)C(=O)NC1=CNC(c2ccncc2)NC1=O (stereo partly drawn) [Example 9, 5-[2-(Benzyloxycarbonyl)-amino-2-isobutyl]acetamido-2-(pyridin-4-yl)-2,3-dihydopyrimidine-6-(1H)one]
